What was measured:
[1] = Pharmacokinetics of Compound 40 and benzene sulfonate thereof in ICR mice, PO; conditions: mouse, in vivo, PO 100 mg/kg (based on free base), 40% Hp-β-CD
[2] = system: haloperidol-induced stiffness; assay: Haloperidol-induced Parkinson's disease stiffness model in CD-1 mice (rearing and bar tests); format: in vivo; conditions: Experiment I
Excerpt: Parkinson's disease (PD) is a common class of degenerative disease of the nervous system with the main pathological changes including the loss of substantia nigra dopaminergic neurons and the decrease of dopamine transmitter content, leading to tremor at rest, muscle stiffness, […], postural reflex disorders and other clinical symptoms. Haloperidol, a dopamine D2 receptor blocker, can block the dopamine D2 receptor in the striatum, leading to mouse dystonic postures, namely, stiffness and hypokinesia. This model is a recognized animal model of Parkinson's syndrome. The ameliorative effect of a test substance on the stiffness symptom of Parkinson's disease induced by haloperidol in CD-1 mice was evaluated. 57 SPF-grade male CD-1 mice (4 weeks old at the time of purchase and 8 weeks old at the time of experiment) with the weight of about 40 g were randomly divided into 5 groups, namely, a vehicle group (n=11), a group of 1 mg/kg benzene sulfonate of Compound 40 (n=11), a group of 3 mg/kg benzene sulfonate of Compound 40 (n=12), a group of 10 mg/kg benzene sulfonate of Compound 40 (n=12), and a group of 30 mg/kg benzene sulfonate of Compound 40 (n=11). 1 mg/kg haloperidol was injected subcutaneously at an injection volume of 10 ml/kg. 30 minutes after the injection, Compound 40 at each dose was intragastrically infused at a volume of 10 ml/kg. At the 1st hour and the 4th hour after the administration was completed, the rearing and bar tests were performed respectively, and the number of standings and on-bar time of the mice were counted to evaluate the ameliorative effect of Compound 40 on the stiffness symptom of haloperidol-induced Parkinson's disease in CD-1 mice. […] Firstly, the acetate of Compound 22 at each dose was intragastrically infused at a volume of 10 ml/kg. After 30 min, 1 mg/kg haloperidol was injected subcutaneously at an injection volume of 10 ml/kg. At the 1st hour and the 4th hour after the administration was completed, the rearing and bar tests were performed respectively, and the number of standings and on-bar time of the mice were counted to evaluate the ameliorative effect of the acetates of Compound 22 on the stiffness symptom of haloperidol-induced Parkinson's disease in CD-1 mice. […] Firstly, Compound 27 at each dose was intragastrically infused at a volume of 10 ml/kg. After 30 min, 1 mg/kg haloperidol was injected subcutaneously at an injection volume of 10 ml/kg. At the 1st hour and the 4th hour after the administration was completed, the rearing and bar tests were performed respectively, and the number of standings and on-bar time of the mice were counted to evaluate the ameliorative effect of Compound 27 on the stiffness symptom of haloperidol-induced Parkinson's disease in CD-1 mice. The mice were subcutaneously injected with haloperidol at abdomen at a dose of 1 mg/kg, with the concentration of a working solution of 0.1 mg/ml and an injection volume of 10 ml/kg. At the 1st hour and the 4th hour after drug intervention, the mice were put into a white transparent plastic bucket with a diameter of 20 cm and a height of 21 cm. The mice were allowed to acclimate in the bucket for 5 min before starting video recording. The spontaneous activity behaviors of the mice within 10 minutes were recorded, whereby the number of standings was counted. The more the standings, the more frequent the spontaneous exploration activities of the mice, and the lower the degree of stiffness. At the time points of 1st and 4th hours after the rearing test was completed, bar test was carried out. The mice were placed on a long wooden bar with a diameter of […] and a height of 6 cm. The mice were let to hold the wooden bar with forelimbs, only with the buttocks or hind limbs on the ground. The timing was stopped when the hind limbs left the bench top or the fore limbs left the wooden bar, and the on-bar time of the mice was recorded. Each mouse was tested 3 times, and the maximum on-bar time and the average on-bar time were counted. […]

[3] = system: haloperidol-induced stiffness; assay: Haloperidol-induced Wistar rat stiffness model (bar test, rearing); format: in vivo, Wistar rats; conditions: for Number of standings: 1st hour after haloperidol
Description: Time of bar test: The stiffness of the rats was tested by the bar test. That is, a wooden bar with a diameter of 8 mm was fixed between 2 iron stands and was 10 cm from the bench top; and then, the rat's tail was grabbed to make its front paws rest on the wooden bar and its hind paws or buttocks on the ground. Generally, the rat needs to acclimate several times when it was tested for the first time. The time for the forelimbs to drop from the bar or the time for the hind limbs to leave the bench top were tested, each rat was tested 3 times. Number of standings: the number of standings of the rat was measured by the rearing test. That is, the rat was placed in a 27*52 cm cage and acclimate for 5 minutes, and the spontaneous activity behavior, i.e., the number of standings, of the rat within 10 minutes was recorded. When the rat's hind limbs stood with two forelimbs raised over the shoulders and touched the ground, one standing is counted, and the one forelimb lift was excluded. Generally, the rat would raise its forelimbs to touch the cage wall. If the rat raised its forelimbs over the shoulders several times without falling to the ground, only one standing was counted. The time of bar test was taken as a measurement index, including the average time and the maximum time. Long time indicates severe stiffness, short time indicates mild stiffness. After drug treatment, the shorter the time of bar test, the better the effect of the drug on relieving stiffness. The number of standings was counted by the rearing test. The more the number of standings, the more frequent the spontaneous exploration activity of the rat, and the lower the stiffness. The statistical analysis between groups was performed on the data by using Prism GraphPad 7.0 independent sample T test, and P<0.05 was considered as a significant difference.

[4] = 10 mg/kg intragastric, 1st hour
[5] = 10 mg/kg intragastric, 4th hour
[6] = 30 mg/kg intragastric, 1st hour
[7] = 30 mg/kg intragastric, 4th hour

## Cn1nnc(-c2ccc(CCNc3nc(N)n4nc(-c5ccco5)nc4n3)cc2)n1.O=S(=O)(O)c1ccccc1 [Benzene sulfonate of Compound 40, N^5-(4-(2-methyl-2H-tetrazol-5-yl)phenethyl)-2-(furan-2-yl)-[1,2,4]triazolo[1,5-a][1,3,5]triazine-5,7-diamine benzene sulfonate]
[1]
  AUC(0-t): 138 µg·h/mL
  Cmax: 36000 ng/mL
  Tmax: 0.5 h
[1]; read-out: AUCINF—pred
  AUC(0-inf): 138 µg·h/mL
[1]; read-out: T½ (converted)
  half-life: 2.29 h
[2]; 1 mg/kg intragastric, 1st hour
  Average on-bar time: 237.67 ± 40.20 s
  Maximum on-bar time: 356.43 ± 55.79 s
  Number of standings: 17.00 ± 1.99
[2]; 1 mg/kg intragastric, 4th hour
  Average on-bar time: 241.14 ± 31.32 s
  Maximum on-bar time: 361.29 ± 53.92 s
  Number of standings: 8.71 ± 2.68
[2]; 3 mg/kg intragastric, 1st hour
  Average on-bar time: 120.05 ± 35.31 s
  Maximum on-bar time: 184.00 ± 50.55 s
  Number of standings: 17.00 ± 2.99
[2]; 3 mg/kg intragastric, 4th hour
  Average on-bar time: 171.76 ± 52.86 s
  Maximum on-bar time: 225.14 ± 51.96 s
  Number of standings: 14.86 ± 1.89
[2]; [4]
  Average on-bar time: 36.10 ± 5.88 s
  Maximum on-bar time: 57.00 ± 11.21 s
  Number of standings: 34.90 ± 4.75
[2]; [5]
  Average on-bar time: 66.07 ± 13.96 s
  Maximum on-bar time: 96.10 ± 23.06 s
  Number of standings: 17.80 ± 4.32
[2]; [6]
  Average on-bar time: 26.50 ± 5.88 s
  Maximum on-bar time: 34.88 ± 6.68 s
  Number of standings: 43.25 ± 3.89
[2]; [7]
  Average on-bar time: 20.00 ± 1.28 s
  Maximum on-bar time: 24.13 ± 1.67 s
  Number of standings: 25.13 ± 3.25
[3]; 3 mg/kg intragastric
  Average on-bar time: 212.67 ± 51.43 s
  Maximum on-bar time: 266.63 ± 50.73 s
  Number of standings: 1.75 ± 0.60
[3]; 10 mg/kg intragastric
  Average on-bar time: 41.67 ± 16.50 s
  Maximum on-bar time: 69.67 ± 28.71 s
  Number of standings: 7.89 ± 0.98
[3]; 30 mg/kg intragastric
  Average on-bar time: 12.29 ± 1.41 s
  Maximum on-bar time: 18.00 ± 2.21 s
  Number of standings: 13.00 ± 0.96

Source: patent publication US20230048888A1, “USE OF TRIAZOLOTRIAZINE DERIVATIVE IN TREATMENT OF DISEASES” (ZHEJIANG VIMGREEN PHARMACEUTICALS, LTD., priority 2019, published 2023)
